Assay results reported in US9700525B2, “Continuous local slow-release of therapeutics for head and neck problems and upper aerodigestive disorders” (Board of Supervisors of Louisiana State University and …, priority 2008, dated 2017).

Tests used:
Akt/mTOR pathway = assay: Model of minimal residual disease; type: in vivo
mTOR pathway markers = settings: tumors and PBMCs of HNSCC patients; cited from earlier work
HNSCC cell lines = assay: Inhibition of cell proliferation in HNSCC cell lines; type: cell-based
Text: While curcumin can be used to treat these cancers, other compounds that act on these pathways may also be useful in treating these cancers and it should be readily recognized that such compounds could also be delivered by including in the formulations described herein.

[1] = system: normal fibroblast cell line CCL110; assay: Effect on proliferation of normal fibroblast cell line; type: cell-based
[2] = system: NFκB and Akt/mTOR pathways; assay: Modulation of NFκB and Akt/mTOR pathways in cell lines (western blot); type: cell-based
SCC40 xenografts = assay: Akt/mTOR pathway markers in SCC40 xenografts of treated mice; type: in vivo; settings: mice with SCC40 xenografts treated with curcumin
tumor cells = assay: Chemoprevention model: pre-treatment before tumor cell injection, tumor volumes; type: in vivo, Balb/c nu/nu mice; settings: pre-treated 4 days prior to injecting tumor cells
Experimental: Balb/c nu/nu mice were randomized into treatment groups. […] Tumors were measured over approximately three weeks. […] ANOVA analysis. […] This also points to its role as a chemopreventive agent rather than a therapeutic agent.

TPA-induced tumors = settings: topical application of 10 μmol twice weekly; cited from earlier work
DMBA-induced oral tumors = settings: 10 μmol topically 3 times/week for 24 weeks; cited from earlier work
[3] = system: prostate cancer xenograft; settings: p.o. gavage 5 mg/day, 5 days/week for 4 weeks; cited from earlier work
[4] = following oral administration; cited from earlier work

CO[C@H]1C[C@@H]2CC[C@@H](C)[C@@](O)(O2)C(=O)C(=O)N2CCCC[C@H]2C(=O)O[C@H]([C@H](C)C[C@@H]2CC[C@@H](OC(=O)C(C)(CO)CO)[C@H](OC)C2)CC(=O)[C@H](C)/C=C(\C)[C@@H](O)[C@@H](OC)C(=O)[C@H](C)C[C@H](C)/C=C/C=C/C=C/1C [CCI-779, temsirolimus]
survival (Akt/mTOR pathway): improve survival
tumor formation (Akt/mTOR pathway): inhibit tumor formation
modulation of mTOR pathway markers (mTOR pathway markers): modulation of these markers

COc1cc(/C=C/C(=O)CC(=O)/C=C/c2ccc(O)c(OC)c2)ccc1O [curcumin]
growth inhibitory effect (HNSCC cell lines; all 10 HNSCC cell lines tested to date): growth inhibitory effects
growth inhibitory effect (HNSCC cell lines; three HNSCC cell lines, 10 μM, 48 hours): significant growth inhibitory effects
concentration giving consistent inhibition of cell proliferation (HNSCC cell lines; variety of HNSCC cell lines, in vitro): less than 10 μM
dose required to see effects [1]: 20 to 40 µM
change in pNFκB ([2]; PCI15a cells, 10 μM, 24 and 48 hours): no change
change in pAkt ([2]; PCI15a cells, 10 μM, 48 hours): down-regulated
change in pS6 downstream of mTOR ([2]; PCI15a cells, 10 μM, 48 hours): down-regulated
change in the Akt/mTOR pathway ([2]; SCC40 cells, 10 μM): no change
change in pNFκB ([2]; SCC40 cells, 10 μM, 48 hours): down-regulation
modulation of the Akt/mTOR pathway ([2]; SCC066 cells, 10 μM): did not show any modulation
change in pNFκB or Akt/mTOR ([2]; normal fibroblast cell line CCL110, 10 μM): no decrease
change in pAkt (SCC40 xenografts): significant decrease
change in pS6 (SCC40 xenografts): significant decrease
difference in tumor volumes vs control (vehicle treated) (tumor cells; 10 mg): no significant difference
difference in tumor volumes vs control (vehicle treated) (tumor cells; 15 mg, about three weeks): statistically significant difference
inhibition of the number of tumors per mouse (TPA-induced tumors): 98%
reduction of the number of DMBA-induced oral tumors (DMBA-induced oral tumors): ~40%
inhibition of growth of prostate cancer xenograft [3]: ~50%
bioavailability [4]: low bioavailability
